# Data taken from patent US10189809B2, “SGC stimulators” (Ironwood Pharmaceuticals, Inc., priority 2010, dated 2019).
# Like-named read-outs stand apart in the source and are kept apart here.
# Key:
# [1] = biological target: T1, Human soluble guanylate cyclase enzyme (hsGC) (Homo sapiens (Human), UniProt Q02108+Q02153); assay: Purified human sGC enzyme activity assay; type: biochemical; conditions: for sGC Enzyme (specific activity at 10 μM) / sGC Enzyme (fold increase at 10 μM without SNP): 10 μM compound
# Outline: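 Values are fold-change of sGC specific activity, nmoles cGMP per mg enzyme per min, relative to DMSO controls. Reactions: 5 ng human enzyme, 300 μM GTP, 1 mM IBMX, 2 mM MgCl2/DTT, 0.1 M Tris pH 8.0, compound 10 or 30 μM final, 37° C for 30 minutes, methanol quench. cGMP read against a 0.078-10 μM final standard curve.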
# [2] = biological target: T1, Human soluble guanylate cyclase enzyme (hsGC); assay: Purified human sGC enzyme synergy assay in the presence of 1 μM sodium nitroprusside (SNP); type: biochemical; conditions: for sGC Enzyme (fold increase at 30 μM with SNP): 30 μM compound; for sGC Enzyme (fold increase at 10 μM with SNP): 10 μM compound
# Experimental: Human soluble guanylate cyclase enzyme (hsGC) obtained from Enzo Inc. (P/N: ALX-201-177) was used to evaluate the activity of test compounds. The assay reactions contained 0.1 M Tris (pH 8.0), 0.5 mg/mL BSA (pH 8.0), 2 mM DTT, 2 mM MgCl2, 300 μM GTP, 1 mM 3-isobutyl-1-methylxanthine (IBMX) and 5 ng human soluble guanylate cyclase enzyme. Test compounds in DMSO were then added (2 μL, 10 or 30 μM final concentration) and incubated (200 μL, 96-well plate format) at 37° C. for 30 minutes. The controls were carried out using 2 μL DMSO. After the 30 minute incubation, the reaction was stopped with the addition of 200 μL of cold methanol. The plate was then centrifuged at 3,200 rpm for 10 minutes at room temperature. Supernatants (200 μL) were collected and transferred to a new 96 well plate for analysis.
# An 8 point cGMP (Sigma-Aldrich P/N: G6129) standard curve was prepared in assay buffer ranging from 0.156-20 μM. Samples for the cGMP standard curve were then diluted with an equal volume of methanol resulting in final cGMP concentrations of 0.078-10 μM.
# The cGMP standard curve was generated using GraphPad Prism Software.
# Calculations: Specific Activity was determined by the amount of cGMP formed (nmoles) per mg of sGC per min. Enzyme “fold-change” was calculated by dividing Specific Activity for test compounds by Specific Activity of DMSO controls.
# Enzyme assays were performed as described above, but was done in the presence of 1 μM sodium nitroprusside (SNP).
# [3] = biological target: T2, soluble guanylate cyclase (sGC) (Homo sapiens (Human), UniProt Q02108+Q02153); assay: sGC-HEK-cGMP assay run in the absence of SNP (HEK WC assay); type: cell-based; conditions: compound at 30 μM, absence of SNP
# Outline: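 Intracellular cGMP was measured by LC/MS, using a standard curve, in HEK293 cells treated with compound for 10 min at 37° C after a 15 min 0.5 mM IBMX pretreatment, with no SNP present. Lysis and quench used 0.1 M HCl. EC50 values came from concentration-response fits.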
# [4] = biological target: T2, soluble guanylate cyclase (sGC); assay: sGC-HEK-cGMP assay run with SNP incubation (HEK WC assay); type: cell-based; conditions: for HEK WC Assay (fold increase at 30 μM in the presence of 10 μM SNP): compound at 30 μM; for EC50: in the presence of 10 uM SNP
# Outline: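 EC50 values derive from concentration-response curves of intracellular cGMP in HEK293 cells, which express sGC endogenously. Compound and sodium nitroprusside were co-incubated 10 min at 37 °C after a 15-min 0.5 mM IBMX step, with 0.1 M HCl lysis and 1% DMSO vehicle.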
# Thoracic aortic rings = assay: Alternative thoracic aortic rings assay (Example 19b; resting tension as 100% inhibition); parameters: species or system rat; conditions: Rattus norvegicus, Table 10B; for inhibition at 1 µM: read-out: Percent Relaxation at 1 μM; for inhibition at 3 µM: read-out: Percent Relaxation at 3 μM; for inhibition at 10 µM: read-out: Percent Relaxation at 10 μM; for EC50: read-out: Aortic Ring EC50
# Outline: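 EC50 values come from cumulative concentration-response relaxation of phenylephrine (100 ng/mL)-contracted thoracic aortic rings from 275-299 g male Sprague-Dawley rats. Rings were equilibrated at 1.0 g tension in oxygenated Krebs-Henseleit at 37 °C, with compounds given in DMSO and tension measured isometrically.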
# [5] = read-out: HEK WC Assay (% Emax at 10 μM with 10 uM SNP)
# [6] = read-out: HEK WC Assay (% Emax at 30 μM with 10 uM SNP)
# [7] = read-out: HEK WC Assay (% Emax at 1 μM with 10 uM SNP)
# T2 sequence (Q02153 whole entry): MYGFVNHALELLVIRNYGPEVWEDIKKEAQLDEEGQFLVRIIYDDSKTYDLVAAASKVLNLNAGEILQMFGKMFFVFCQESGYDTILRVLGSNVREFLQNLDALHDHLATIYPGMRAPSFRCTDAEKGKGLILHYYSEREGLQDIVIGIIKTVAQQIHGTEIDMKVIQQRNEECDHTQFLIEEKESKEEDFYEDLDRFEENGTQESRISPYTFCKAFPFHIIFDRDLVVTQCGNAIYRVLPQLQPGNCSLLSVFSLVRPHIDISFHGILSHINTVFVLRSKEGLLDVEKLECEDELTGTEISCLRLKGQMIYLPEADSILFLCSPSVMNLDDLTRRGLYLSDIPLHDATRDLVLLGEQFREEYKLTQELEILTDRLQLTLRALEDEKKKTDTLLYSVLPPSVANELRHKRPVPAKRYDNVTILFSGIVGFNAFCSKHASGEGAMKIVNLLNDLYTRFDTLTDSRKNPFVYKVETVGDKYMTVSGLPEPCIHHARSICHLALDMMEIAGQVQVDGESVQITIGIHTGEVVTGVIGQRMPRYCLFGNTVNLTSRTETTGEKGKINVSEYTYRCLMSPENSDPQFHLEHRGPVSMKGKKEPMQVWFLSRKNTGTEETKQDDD
# T2 sequence (Q02108 whole entry): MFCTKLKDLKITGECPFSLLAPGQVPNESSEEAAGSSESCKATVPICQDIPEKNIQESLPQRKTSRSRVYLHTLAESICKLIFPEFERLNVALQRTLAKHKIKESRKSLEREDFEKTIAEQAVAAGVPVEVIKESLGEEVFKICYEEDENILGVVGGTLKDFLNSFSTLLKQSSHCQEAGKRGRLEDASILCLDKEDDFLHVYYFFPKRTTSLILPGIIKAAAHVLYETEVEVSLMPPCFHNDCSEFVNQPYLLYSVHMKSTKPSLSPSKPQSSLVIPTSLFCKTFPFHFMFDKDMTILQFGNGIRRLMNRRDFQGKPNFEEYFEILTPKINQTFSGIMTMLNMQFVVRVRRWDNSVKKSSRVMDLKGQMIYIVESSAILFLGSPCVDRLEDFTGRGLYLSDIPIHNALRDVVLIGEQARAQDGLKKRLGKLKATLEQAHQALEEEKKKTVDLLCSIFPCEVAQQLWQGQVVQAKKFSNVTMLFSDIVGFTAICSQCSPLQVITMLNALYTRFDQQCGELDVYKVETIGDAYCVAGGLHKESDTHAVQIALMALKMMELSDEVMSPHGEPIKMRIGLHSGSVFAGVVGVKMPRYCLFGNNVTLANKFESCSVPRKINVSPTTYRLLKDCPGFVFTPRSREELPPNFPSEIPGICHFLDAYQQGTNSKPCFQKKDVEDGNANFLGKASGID
# T1 sequence (Q02153 whole entry): as the sequence (Q02153 whole entry) above
# T1 sequence (Q02108 whole entry): as the sequence (Q02108 whole entry) above
"sGC Enzyme (fold increase at 30 μM) ([1]; 30 μM compound, without the addition of SNP)",sGC Enzyme (fold increase at 30 μM with SNP) ([2]; with the addition of SNP),sGC Enzyme (specific activity at 10 μM) [1],sGC Enzyme (fold increase at 10 μM without SNP) [1],sGC Enzyme (specific activity at 30 μM) ([1]; 30 μM compound),sGC Enzyme (fold increase at 30 μM without SNP) ([1]; 30 μM compound),sGC Enzyme (fold increase at 10 μM with SNP) ([2]; with 1 μM SNP),sGC Enzyme (fold increase at 30 μM with SNP) ([2]; with 1 μM SNP),HEK WC Assay (fold increase at 30 μM in the absence of SNP) [3],HEK WC Assay (fold increase at 30 μM in the presence of 10 μM SNP) [4],EC50 [4] [µM],"Emax [4, 5] [%]","Emax [4, 6] [%]",EC50 (Thoracic aortic rings) [µM],"Emax [4, 7] [%]",SMILES,inhibition at 1 µM (Thoracic aortic rings) [%],inhibition at 3 µM (Thoracic aortic rings) [%],inhibition at 10 µM (Thoracic aortic rings) [%]
C (C = 5 to <10 fold increase),D (D = 10 to <30 fold increase),–,–,–,–,–,–,–,–,–,–,–,–,–,N#Cc1cnc(-c2cc(-c3ccon3)n(Cc3ccccc3F)n2)nc1N [Compound I-130],–,–,–
–,–,C (C = 100 to <200),A (A = no increase to <2 fold increase),C (C = 100 to <200),A (A = no increase to <2 fold increase),A (A = no increase to <2 fold increase),A (A = no increase to <2 fold increase),–,–,–,–,–,–,–,COc1ccccc1-c1cc(-c2ncccn2)nn1Cc1ccccc1F [Compound I-37],–,–,–
–,–,C (C = 100 to <200),A (A = no increase to <2 fold increase),C (C = 100 to <200),A (A = no increase to <2 fold increase),A (A = no increase to <2 fold increase),A (A = no increase to <2 fold increase),–,–,–,–,–,–,–,COc1cccc(-c2cc(-c3ccccn3)nn2Cc2ccccc2F)c1 [Compound I-38],–,–,–
–,–,C (C = 100 to <200),A (A = no increase to <2 fold increase),C (C = 100 to <200),A (A = no increase to <2 fold increase),A (A = no increase to <2 fold increase),A (A = no increase to <2 fold increase),–,–,–,–,–,–,–,Cc1ccccc1-c1cc(-c2ccccn2)nn1Cc1ccccc1F [Compound I-24],–,–,–
–,–,–,–,–,–,–,–,E (E = 10 to <20 fold increase),E (E = 10 to <20 fold increase),< 20,60 to 80,40 to 60,< 2,–,Nc1nc(-c2cc(-c3ccon3)n(Cc3ccccc3F)n2)ncc1NC(=O)OCCCl [Compound I-152],60 to 80,80 to 100,100 to 120
–,–,–,–,–,–,–,–,E (E = 10 to <20 fold increase),E (E = 10 to <20 fold increase),< 20,100 to 120,100 to 120,< 2,80 to 100,N#CC1(C(=O)Nc2cnc(-c3cc(-c4ccon4)n(Cc4ccccc4F)n3)nc2N)CC1 [Compound I-238],80 to 100,100 to 120,100 to 120
–,–,–,–,–,–,–,–,C (C = 2 to <5 fold increase),E (E = 10 to <20 fold increase),< 20,20 to 40,60 to 80,–,–,Nc1ccnc(-c2cc(-c3cnco3)n(Cc3ccccc3F)n2)n1 [Compound I-296],20 to 40,40 to 60,80 to 100
–,–,–,–,–,–,–,–,E (E = 10 to <20 fold increase),F (F = 20 to <30 fold increase),< 20,60 to 80,60 to 80,< 2,40 to 60,Nc1nc(-c2cc(-c3ccon3)n(Cc3ccccc3F)n2)ncc1NC(=O)c1cnco1 [Compound I-188],80 to 100,100 to 120,100 to 120
–,–,–,–,–,–,–,–,E (E = 10 to <20 fold increase),E (E = 10 to <20 fold increase),< 20,80 to 100,100 to 120,< 2,60 to 80,Nc1nc(-c2cc(-c3ccon3)n(Cc3ccccc3F)n2)ncc1NC(=O)c1ccccc1Cl [Compound I-185],60 to 80,100 to 120,100 to 120
